Experimental findings from patent publication US8163732B2, “Tricyclic heteroaryl compounds useful as inhibitors of Janus kinase” (Vertex Pharmaceuticals Incorporated, priority 2005, dated 2012) are described below.

SMILES strings stand for the structures.

Assay [1] has as its target JAK-2 (Homo sapiens, UniProt O60674). As to the kind of experiment: JAK-2 inhibition assay. The format is biochemical.
In assay [2] the target is T1, JAK-3 (Homo sapiens, UniProt P52333).
T1 sequence (P52333 1-1124): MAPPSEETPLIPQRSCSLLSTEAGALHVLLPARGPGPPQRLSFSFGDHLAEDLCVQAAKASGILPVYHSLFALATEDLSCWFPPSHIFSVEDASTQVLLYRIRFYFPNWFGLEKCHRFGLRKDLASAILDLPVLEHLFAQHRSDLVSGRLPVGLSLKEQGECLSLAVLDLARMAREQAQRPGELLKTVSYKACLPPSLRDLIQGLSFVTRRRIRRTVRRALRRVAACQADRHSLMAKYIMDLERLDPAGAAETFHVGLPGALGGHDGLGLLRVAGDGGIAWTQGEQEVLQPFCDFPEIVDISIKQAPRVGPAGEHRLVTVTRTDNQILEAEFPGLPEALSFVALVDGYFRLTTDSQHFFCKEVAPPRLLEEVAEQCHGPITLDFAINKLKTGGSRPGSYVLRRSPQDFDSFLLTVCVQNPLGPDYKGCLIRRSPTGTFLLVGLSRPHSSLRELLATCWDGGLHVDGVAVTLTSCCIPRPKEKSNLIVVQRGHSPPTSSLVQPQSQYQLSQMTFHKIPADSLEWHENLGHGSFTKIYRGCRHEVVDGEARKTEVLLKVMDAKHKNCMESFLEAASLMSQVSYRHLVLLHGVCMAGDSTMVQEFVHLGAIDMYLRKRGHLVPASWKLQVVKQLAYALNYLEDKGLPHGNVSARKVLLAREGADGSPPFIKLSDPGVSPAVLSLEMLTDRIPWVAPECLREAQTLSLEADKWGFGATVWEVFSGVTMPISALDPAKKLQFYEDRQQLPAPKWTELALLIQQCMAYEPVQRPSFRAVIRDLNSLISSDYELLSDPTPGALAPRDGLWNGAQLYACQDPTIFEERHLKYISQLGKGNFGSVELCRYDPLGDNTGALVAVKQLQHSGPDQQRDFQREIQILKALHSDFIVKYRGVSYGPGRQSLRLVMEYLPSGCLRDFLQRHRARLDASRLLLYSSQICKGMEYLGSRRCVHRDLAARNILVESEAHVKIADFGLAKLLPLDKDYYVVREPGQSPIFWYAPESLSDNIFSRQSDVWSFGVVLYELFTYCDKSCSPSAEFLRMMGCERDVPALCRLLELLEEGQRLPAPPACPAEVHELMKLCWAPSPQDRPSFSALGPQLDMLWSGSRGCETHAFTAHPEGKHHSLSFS
Kind of assay: JAK-3 inhibition assay. The format is biochemical.

Sequence of JAK-2 (O60674 whole entry): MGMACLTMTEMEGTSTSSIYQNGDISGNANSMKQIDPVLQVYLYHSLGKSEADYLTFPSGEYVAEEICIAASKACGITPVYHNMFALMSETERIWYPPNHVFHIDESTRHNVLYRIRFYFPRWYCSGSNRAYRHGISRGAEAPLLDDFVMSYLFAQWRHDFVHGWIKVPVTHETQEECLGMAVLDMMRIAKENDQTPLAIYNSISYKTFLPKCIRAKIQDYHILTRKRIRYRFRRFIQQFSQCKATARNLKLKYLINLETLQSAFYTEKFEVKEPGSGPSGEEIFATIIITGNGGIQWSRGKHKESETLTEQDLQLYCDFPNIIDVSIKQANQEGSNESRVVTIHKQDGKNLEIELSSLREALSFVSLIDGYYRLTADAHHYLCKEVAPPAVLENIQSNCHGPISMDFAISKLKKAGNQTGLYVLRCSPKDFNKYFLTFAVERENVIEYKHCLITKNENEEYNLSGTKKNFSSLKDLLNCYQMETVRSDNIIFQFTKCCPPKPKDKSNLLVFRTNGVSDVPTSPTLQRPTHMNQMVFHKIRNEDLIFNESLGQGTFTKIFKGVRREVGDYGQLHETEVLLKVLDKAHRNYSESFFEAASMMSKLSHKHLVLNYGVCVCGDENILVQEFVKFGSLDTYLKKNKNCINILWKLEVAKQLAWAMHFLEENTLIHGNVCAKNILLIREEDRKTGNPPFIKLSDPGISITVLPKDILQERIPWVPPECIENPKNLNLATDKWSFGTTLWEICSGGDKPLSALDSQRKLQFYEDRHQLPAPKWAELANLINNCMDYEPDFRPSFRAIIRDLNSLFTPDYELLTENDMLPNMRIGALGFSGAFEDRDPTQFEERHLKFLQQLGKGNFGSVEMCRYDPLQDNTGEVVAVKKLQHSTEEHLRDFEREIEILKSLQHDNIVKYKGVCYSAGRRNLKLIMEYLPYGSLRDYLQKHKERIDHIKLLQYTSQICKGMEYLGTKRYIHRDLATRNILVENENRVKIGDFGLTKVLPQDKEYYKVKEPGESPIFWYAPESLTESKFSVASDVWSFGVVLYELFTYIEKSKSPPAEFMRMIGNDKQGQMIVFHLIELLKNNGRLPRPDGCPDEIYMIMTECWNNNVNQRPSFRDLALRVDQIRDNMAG

Usually Ki stands for a measure of affinity in units of concentration, obtained from inhibition or displacement. For the compound `c1ccc(C2Nc3ccccc3-c3ncnc4[nH]cc2c34)cc1` (stereo not drawn) [Compound 3], the Ki was greater than 2500 nM in assay [1] and 250 to 2500 nM in assay [2].
Turning to `c1cncc(C2Nc3ccccc3-c3ccnc4[nH]cc2c34)c1` (stereo not drawn) [Compound 38], the inhibition constant (Ki) in assay [1] and in assay [2] was 250 to 2500 nM each time.
Turning to `O=C1NC(c2ccc(Br)cc2)c2c[nH]c3nccc(c23)-c2ccccc21` (stereo not drawn) [Compound 152], the Ki in assay [1] and in assay [2] was greater than 2500 nM each time.
As for `Fc1ccccc1C1Nc2ccccc2-c2ccnc3[nH]cc1c23` (stereo not drawn) [Compound 7], the inhibition constant (Ki) is less than 250 nM in assay [1] and 250 to 2500 nM in assay [2].
In the case of `O=C(O)c1cc(C2Nc3ccccc3-c3ccnc4[nH]cc2c34)ccc1O` (stereo not drawn) [Compound 110], the Ki in assay [1] and in assay [2] was greater than 2500 nM in each case.
Take `Fc1ccc(F)c(C2Nc3ccccc3-c3ncnc4[nH]cc2c34)c1F` (stereo not drawn) [Compound 56]: the Ki in assay [1] was less than 250 nM; in assay [2], no more than 250 nM.
Consider `COC(=O)Nc1ccc(C2c3c[nH]c4nccc(c34)-c3ccccc3N2C(=O)OC)cc1` (stereo not drawn) [Compound 100], for which the Ki in assay [1] was greater than 2500 nM; in assay [2], 250 to 2500 nM.
For the compound `c1ccc2c(c1)NC(c1ccncc1)c1c[nH]c3nccc-2c13` (stereo not drawn) [Compound 43], the Ki in assay [1] is 250 to 2500 nM; in assay [2] it was greater than 2500 nM.
As for `COc1cc(C2Nc3ccccc3-c3ccnc4[nH]cc2c34)cc(Cl)c1O` (stereo not drawn) [Compound 112], the Ki is less than 250 nM in assay [1] and no more than 250 nM in assay [2].
On to `Oc1ccc(C2Nc3ccccc3-c3ccnc4[nH]cc2c34)cc1C(F)(F)F` (stereo not drawn) [Compound 104], for which the Ki in assay [1] and in assay [2] was 250 to 2500 nM each time.
`Clc1cccc(C2Nc3ccccc3-c3ccnc4[nH]cc2c34)c1Cl` (stereo not drawn) [Compound 41]: the figures for the Ki in assay [1] and in assay [2] were 250 to 2500 nM and greater than 2500 nM, respectively.
The corresponding values for `Fc1ncccc1C1Nc2ccccc2-c2ccnc3[nH]cc1c23` (stereo not drawn) [Compound 36] are 250 to 2500 nM and 250 to 2500 nM.
Take `Fc1cccc(F)c1C1Nc2ncccc2-c2ccnc3[nH]cc1c23` (stereo not drawn) [Compound 47]: the Ki in assay [1] and in assay [2] was 250 to 2500 nM in each case.
For `Brc1ccc(C2Nc3ccccc3-c3ccnc4[nH]cc2c34)cc1` (stereo not drawn) [Compound 153], the inhibitory constant (Ki) in assay [1] and in assay [2] was greater than 2500 nM in each case.
For the compound `Cc1cc(C2Nc3ccccc3-c3ccnc4[nH]cc2c34)cc(C)c1O` (stereo not drawn) [Compound 79], the inhibition constant (Ki) in assay [1] and in assay [2] was 250 to 2500 nM throughout.
For `c1ccc(COCC2Nc3ccccc3-c3ncnc4[nH]cc2c34)cc1` (stereo not drawn) [Compound 2], the inhibition constant (Ki) in assay [1] and in assay [2] was greater than 2500 nM each time.
As to `Nc1ccc(C2Nc3ccccc3-c3ccnc4[nH]cc2c34)cc1` (stereo not drawn) [Compound 93], the figures for the Ki in assay [1] and in assay [2] were less than 250 nM and no more than 250 nM, respectively.
For `Cn1cc2c3c(ncnc31)-c1ccccc1NC2c1ccc(O)c(F)c1` (stereo not drawn) [Compound 117], in that order: less than 250 nM and no more than 250 nM.
For `CCN(CC)CCOc1ccc(C2Nc3ccccc3-c3ccnc4[nH]cc2c34)cc1` (stereo not drawn) [Compound 157], in that order: less than 250 nM and no more than 250 nM.
For `Oc1ccc(C2=Nc3ccccc3-c3ccnc4[nH]cc2c34)cc1OC(F)(F)F` [Compound 113], in that order: less than 250 nM and no more than 250 nM.
`CN1C(=O)C(c2ccc(O)cc2)c2c[nH]c3ncnc(c23)-c2ccccc21` (stereo not drawn) [Compound 159]: the Ki in assay [1] was less than 250 nM; in assay [2], no more than 250 nM.
The corresponding values for `c1ccc2c(c1)N=C(c1ccncc1)c1c[nH]c3nccc-2c13` [Compound 44] are less than 250 nM and 250 to 2500 nM.
For `OCCCCC1=Nc2ccccc2-c2ccnc3[nH]cc1c23` [Compound 58], in that order: 250 to 2500 nM and 250 to 2500 nM.
The corresponding values for `COc1cc(C2Nc3ccccc3-c3ncnc4[nH]cc2c34)cc(OC)c1O` (stereo not drawn) [Compound 85] are 250 to 2500 nM and 250 to 2500 nM.
As to `CCOC(=O)C1Nc2ccccc2-c2ccnc3[nH]cc1c23` (stereo not drawn) [Compound 8], the Ki in assay [1] and in assay [2] was 250 to 2500 nM each time.
Consider `Brc1ccccc1C1Nc2ccccc2-c2ccnc3[nH]cc1c23` (stereo not drawn) [Compound 21], for which the inhibition constant (Ki) in assay [1] and in assay [2] was 250 to 2500 nM each time.
On to `c1ccc2c(c1)NC(c1ccc(-n3cncn3)cc1)c1c[nH]c3nccc-2c13` (stereo not drawn) [Compound 120], for which the Ki in assay [1] and in assay [2] was greater than 2500 nM each time.
With `c1ccc2c(c1)NC(C1CCNCC1)c1c[nH]c3nccc-2c13` (stereo not drawn) [Compound 90], the inhibition constant Ki in assay [1] and in assay [2] was 250 to 2500 nM each time.
Consider `FC(F)(F)C1Nc2ccccc2-c2ncnc3[nH]cc1c23` (stereo not drawn) [Compound 4], for which the Ki in assay [1] and in assay [2] was greater than 2500 nM each time.
Take `COc1cc(C2Nc3ccccc3-c3ccnc4[nH]cc2c34)cc(O)c1O` (stereo not drawn) [Compound 64]: the figures for the Ki in assay [1] and in assay [2] were less than 250 nM and no more than 250 nM, respectively.
The corresponding values for `COc1ccc(C2Nc3ccccc3-c3ccnc4[nH]cc2c34)cc1F` (stereo not drawn) [Compound 45] are less than 250 nM and 250 to 2500 nM.
Turning to `CCOc1cc(C2Nc3ccccc3-c3ccnc4[nH]cc2c34)ccc1O` (stereo not drawn) [Compound 148], the Ki in assay [1] and in assay [2] was 250 to 2500 nM throughout.
In the case of `COc1ccc(C2NC(=O)c3ccccc3-c3ccnc4[nH]cc2c34)cc1` (stereo not drawn) [Compound 126], the inhibition constant Ki in assay [1] and in assay [2] was greater than 2500 nM in each case.
